Measured values published in patent US9012407B2, “Therapies which act on neuropeptide S receptors” (The Regents of the University of California, priority 2004, dated 2015).

What was measured:
C57Bl/6 mice [1] = assay: Open field test; assay type: in vivo; conditions: naive mice, i.c.v.
Description: Naïve mice were tested in the open field, a paradigm of free exploratory behavior in a novel environment. […] In order to further study NPS effects on stress as it relates to anxiety, two additional tests were performed that are based on the natural aversion of rodents to open or unprotected spaces: the light-dark box and the elevated plus maze (FIG. 8B, C).
Male C57Bl/6 mice (National Cancer Institute, Bethesda, MD), age 10-14 weeks, were group-housed (4 animals per cage) under controlled conditions (temperature 21±2° C.; relative humidity 50-60%; 12-hour light-dark cycle, lights on 6:00 AM) with free access to food and water. Prior to drug injections, mice were briefly anesthetized with halothane. NPS was dissolved in phosphate-buffered saline (PBS, pH 7.4) and injected i.c.v. (total volume: 2 μl) as described before (Laursen and Belknap, 1986). […]
(§1) Locomotion was monitored in rectangular plexiglass boxes (60×40×50 cm). Horizontal activity was measured over 60 min by 18×12 infrared sensors placed 2 cm above the floor. […] Marble burying was measured in mice placed individually in polypropylene cages (30×18×12 cm) containing 18 glass marbles (1.5 cm diameter) evenly spaced on 5 cm deep rodent bedding (bed-o'cob, The Andersons Inc., Maumee, Ohio) (Njung'e and Handley, 1991). […] Cages were covered with a metal grid and the number of marbles covered at least two-thirds was counted after 30 min.

NPSR Ile^107 = target: T1, NPSR Ile^107 (Homo sapiens, UniProt Q6W5P4, N107I); assay: CRE-luciferase reporter gene assay, HEK 293 cells, NPSR Ile107; assay type: cell-based; conditions: transiently transfected HEK cells
T1 construct: The Ile^107 isoform of NPSR was generated by PCR using synthetic oligonucleotides and the Quik Change Site-Directed Mutagenesis kit from Stratagene; expressed in transfected cells
T1 sequence (Q6W5P4 1-371 N107I): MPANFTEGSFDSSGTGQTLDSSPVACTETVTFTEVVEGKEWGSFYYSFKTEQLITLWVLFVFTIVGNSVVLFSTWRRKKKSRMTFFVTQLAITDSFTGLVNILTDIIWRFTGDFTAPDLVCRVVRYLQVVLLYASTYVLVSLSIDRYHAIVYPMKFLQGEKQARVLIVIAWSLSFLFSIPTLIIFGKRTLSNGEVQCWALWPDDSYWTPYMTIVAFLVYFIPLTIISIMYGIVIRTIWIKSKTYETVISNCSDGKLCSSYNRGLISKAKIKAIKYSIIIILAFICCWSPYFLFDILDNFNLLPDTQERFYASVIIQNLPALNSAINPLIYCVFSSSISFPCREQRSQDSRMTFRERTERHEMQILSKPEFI
Excerpt: (§2) HEK 293 cells were stably transfected with a reporter gene containing 6 copies of a cAMP response element (CRE; sequence […]) in front of a luciferase reporter gene (Promega) cloned into pcDNA3.1 neo. One stable clone showing robust induction of reporter gene expression after forskolin challenge was chosen for further experiments. The different NPSR isoform cDNAs (cloned into pcDNA3.1 hygro) were transfected into these cells using lipofectamine and stable clones were selected. The same cells and procedures were also used for transient transfection. For induction of reporter gene expression cells were plated in 96-well plates and incubated with agonist for 5 hours in serum-free medium, followed by aspiration of the medium and cell lysis with 25 mM Tris-phosphate, pH 7.8, 2 mM dithiothreitol, 2 mM 1,2-diaminocyclohexane-N,N,N′,N′,-tetraacetic acid, 10% glycerol, 1% Triton X-100. After one freeze-thaw cycle aliquots of supernatant were transferred to white clear-bottom 96-well plates (Greiner) and luciferase content was quantified by bioluminescence (Luc-Screen, Applied Biosystems). Plates were counted in a scintillation counter using bioluminescence settings (MicroBeta, Wallac-Perkin Elmer).

[2] = system: Colo205 human colon cancer cells; assay: Cell proliferation, [3H]-thymidine incorporation in Colo205 cells; assay type: cell-based
Description: Cells were seeded in 24-well plates and grown overnight to 60-70% confluency. Following 24 h serum-starvation, 2 μCi of methyl-[^3H] thymidine was added together with increasing concentrations of NPS. 500 nM PGE2 served as a positive control. After 3 h incubation cells were washed 3 times with PBS and then lysed with 0.5 N NaOH. The lysate was neutralized with 0.5 N HCl and aliquots were counted in a liquid scintillation counter for incorporated radioactivity.

NPSR C-alt = target: T2, NPSR C-alt (Homo sapiens, UniProt Q6W5P4); assay: CRE-luciferase reporter gene assay, HEK 293 cells, NPSR C-alt; assay type: cell-based; conditions: transiently transfected HEK cells; read-out: EC50, luciferase reporter induction
T2 construct: The C-terminal splice variant of NPSR (NPSR C-alt, GPRA isoform B); expressed in transfected cells; host or cells: HEK 293 cells carrying the CRE-luciferase reporter, transient transfection, pcDNA3.1 hygro
T2 sequence (Q6W5P4 1-377 isoform Q6W5P4-4): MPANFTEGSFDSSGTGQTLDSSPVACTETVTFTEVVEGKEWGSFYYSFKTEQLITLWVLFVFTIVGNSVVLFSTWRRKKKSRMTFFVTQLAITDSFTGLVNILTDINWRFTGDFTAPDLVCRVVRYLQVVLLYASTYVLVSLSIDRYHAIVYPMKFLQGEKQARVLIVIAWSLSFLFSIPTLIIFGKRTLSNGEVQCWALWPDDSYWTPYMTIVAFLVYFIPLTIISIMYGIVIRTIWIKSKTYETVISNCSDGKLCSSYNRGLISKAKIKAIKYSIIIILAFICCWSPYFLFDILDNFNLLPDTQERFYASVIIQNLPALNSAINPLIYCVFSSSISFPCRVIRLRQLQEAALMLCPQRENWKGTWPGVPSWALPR
Excerpt: as §2

C57Bl/6 mice [3] = assay: Light-dark box; assay type: in vivo
Description: (§3) Male C57Bl/6 mice (National Cancer Institute, Bethesda, MD), age 10-14 weeks, were group-housed (4 animals per cage) under controlled conditions (temperature 21±2° C.; relative humidity 50-60%; 12-hour light-dark cycle, lights on 6:00 AM) with free access to food and water. Prior to drug injections, mice were briefly anesthetized with halothane. NPS was dissolved in phosphate-buffered saline (PBS, pH 7.4) and injected i.c.v. (total volume: 2 μl) as described before (Laursen and Belknap, 1986). Mice were allowed to recover for 5 min and then placed in the observation apparatus.
(§4) Locomotion was monitored in rectangular plexiglass boxes (60×40×50 cm). Horizontal activity was measured over 60 min by 18×12 infrared sensors placed 2 cm above the floor. A second row of sensors at 8 cm above the floor was used to record rearing events. The imaginary central zone was defined as a 30×20 cm rectangle in the middle of each observation area. Data were collected using MatLab (Mathworks, Natick, Mass.). Experimental procedures for open field, elevated plus-maze and light-dark box were described previously (Köster et al., 1999). Marble burying was measured in mice placed individually in polypropylene cages (30×18×12 cm) containing 18 glass marbles (1.5 cm diameter) evenly spaced on 5 cm deep rodent bedding (bed-o'cob, The Andersons Inc., Maumee, Ohio) (Njung'e and Handley, 1991). No food or water was present during the observation period. Cages were covered with a metal grid and the number of marbles covered at least two-thirds was counted after 30 min.

C57Bl/6 mice [4] = assay: Marble-burying paradigm; assay type: in vivo; conditions: 30 min observation, 18 marbles per cage, i.c.v.
Excerpt: Many anxiolytic drugs increase exploratory activity in the open field, light-dark box or elevated plus maze paradigms. However, compounds stimulating locomotion could produce false-positive effects in these tests because the enhanced exploration could be secondary to the increase in general activity. In order to validate the observed anxiolytic-like effects of NPS, we tested increasing doses of NPS in the marble-burying paradigm. Mice tend to bury objects such as glass marbles present in their environment. Anxiolytic drugs such as benzodiazepines reduce the number of marbles buried over a fixed period of time. […]
as §1

C57Bl/6 mice [5] = assay: Elevated plus maze; assay type: in vivo
Description: as §3, §4

NPS: neuropeptide S, endogenous NPSR ligand; species of the peptide not stated at the place of the result (SFRNGVGTGMKKTSFQRAKS)
number of entries in the central zone (C57Bl/6 mice [1]; first 10 minutes): significantly increased | ambulations in the outer zones of the open field (C57Bl/6 mice [1]; same doses): increased | maximum of reporter gene expression relative to NPSR WT or NPSR C-alt (NPSR Ile^107): about 2 fold | doses producing maximal thymidine incorporation [2]: 0.1 to 10 nM | thymidine incorporation ([2]; 3 h incubation): dose-dependent stimulation | EC50 (NPSR C-alt): 146 ± 15.1 nM | percentage of entries in the light area (C57Bl/6 mice [3]; 0.03-3 nmole i.c.v.): higher percentage | time in the light area (C57Bl/6 mice [3]; 0.03-3 nmole i.c.v.): prolonged time | number of transitions between the two compartments (C57Bl/6 mice [3]; 0.1-3 nmole i.c.v.): significantly increased | latency until first exit from the dark compartment (C57Bl/6 mice [3]; 0.3-3 nmole i.c.v.): significantly reduced | number of marbles buried (C57Bl/6 mice [4]): dose-dependently reduced | number of transitions from closed to open arms (C57Bl/6 mice [5]; 0.1 and 1 nmole i.c.v.): higher number of transitions | time on the open arms (C57Bl/6 mice [5]; 0.1 and 1 nmole i.c.v.): significantly more time | closed-closed transitions (general activity) (C57Bl/6 mice [5]; all doses i.c.v.): did not reach statistical significance
